Reference: PubChem BioAssay (NCI)
Several values for one entry are separate records, joined by “and”; a condition that tells them apart may be missing. Identical values can stand only once.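 How tested: cells in 96-well plates exposed to compound for 48 hours at five concentrations. At the GI50, growth is halved. TGI is the concentration that stops growth completely.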 Where a SMILES comes first, the peptide text is derived from it. The star is where a group is joined. Trt = c1ccc(C(c2ccccc2)(c2ccccc2)*)cc1; Cbz = O=C(OCc1ccccc1)*

Tests used:
Experiment in all cases: NCI-60 cell line screen, 48 h
[1] = tested on: A549 NSCLC
[2] = tested on: CCRF-CEM leukemia
[3] = tested on: RXF 393 renal
[4] = tested on: NCI/ADR-RES ovarian
[5] = tested on: NCI-H522 lung
[6] = tested on: OVCAR-8 ovarian
[7] = tested on: SNB-19 CNS
[8] = tested on: HS 578T breast

Compound	TGI [1]	TGI [2] [µM]	TGI [3]	TGI [4] [µM]	TGI [5]	TGI [6]	TGI [7] [µM]	TGI [8]	GI50 [2]	GI50 [3]	GI50 [7]	GI50 [8]	GI50 [1]	GI50 [4]	GI50 [5]	GI50 [6]
O=S(=O)(O)SCCNCCCCCC1CCCCC1	23 µM	> 100	38 µM	41.3	37.3 µM	33.1 µM	10.8	36.2 µM	–	–	–	–	–	–	–	–
O=C(Nc1nc2ccccc2s1)c1cc(-c2ccc(F)cc2)n2nc(-c3ccccc3)cc2n1	–	4.52	6.43 µM	–	–	–	> 100	8.64 µM	1.87 µM	2.53 µM	5.21 µM	2.29 µM	–	–	–	–
O=C(NOCCO)c1cc(CN2OCCCC2=O)c(F)c(F)c1Nc1ccc(I)cc1F	> 86.2 µM	> 100	25.9 µM and > 10 µM	> 100	> 65.4 µM	> 100 µM	> 100	> 100 µM	39.5 µM and > 10 µM	0.521 µM and 0.336 µM	3.68 µM and 1.64 µM	20.6 µM and > 10 µM	0.464 µM and 0.156 µM	19.4 µM and > 10 µM	18.3 µM and > 7.9 µM	12.6 µM and > 7.77 µM
CC(N1CCOCC1)C(O)(c1ccccc1)c1ccccn1 (stereo not drawn)	> 100 µM	–	> 100 µM	> 100	> 100 µM	> 100 µM	> 100	> 100 µM	–	–	–	–	–	–	–	–
O=Cc1ccc(N2CCN(c3ccc(C=O)cc3)CC2)cc1	> 100 µM	> 100	> 100 µM	> 100	> 100 µM	> 100 µM	> 100	> 100 µM	> 100 µM	67.2 µM	> 100 µM	> 100 µM	40.1 µM	> 100 µM	43.1 µM	> 100 µM
O=C(C=C=Nc1ccccc1)C(=O)N=C=Cc1ccccc1	22.9 µM	> 100	0.497 µM	14.7	4.97 µM	14.4 µM	> 60.7	7.31 µM	0.724 µM	–	31.6 µM	2.26 µM	6.74 µM	2.95 µM	1.81 µM	3.84 µM
Cc1cc(Br)cc(C)c1NC(=O)C(=O)Nn1c(=S)[nH]c2ccccc2c1=O	> 100 µM	> 100	> 100 µM	> 100	> 100 µM	> 100 µM	> 100	> 100 µM	–	–	–	–	–	–	–	–
O=C(/C=C/c1ccc([N+](=O)[O-])cc1)c1cccc(Nc2nc(Nc3ccccc3)nc(Nc3ccccc3)n2)c1	> 100 µM	25.6	30.1 µM	> 100	> 100 µM	> 100 µM	> 100	5.97 µM	3.85 µM	5.99 µM	79.8 µM	1.35 µM	25 µM	18.2 µM	12.4 µM	14 µM
COC(=O)C(CSC(c1ccccc1)(c1ccccc1)c1ccccc1)NC(=O)C(CC(N)=O)NC(=O)OCc1ccccc1 (stereo not drawn) (Cbz-Asn-Cys(Trt)-OMe; configuration not given here)	51.7 µM	19.7	13.5 µM	20.8	18.7 µM	17 µM	18.9	26.5 µM	3.33 µM	3.17 µM	5.22 µM	4.55 µM	4.38 µM	4.48 µM	3.91 µM	3.16 µM
COc1ccc(C(=O)c2cc3c(N)c(C(=O)Nc4cccc(OC)c4)sc3nc2C)cc1	> 100 µM	> 100	–	> 100	> 100 µM	> 100 µM	> 100	> 100 µM	0.363 µM	0.323 µM	0.513 µM	0.546 µM	0.753 µM	0.515 µM	1.19 µM	1.75 µM
CSCCCNC(=O)[C@H](CSC)NC(=O)c1csc(CCNC(=O)[C@@H](NSc2ccccc2[N+](=O)[O-])C(C)O)n1 (stereo partly drawn)	> 100 µM	> 100	> 100 µM	> 100	> 100 µM	> 100 µM	> 100	> 100 µM	–	–	–	–	–	–	–	–
Cc1cc(Nc2nc(-c3ccncc3)nc3ccccc23)n[nH]1	> 100 µM	> 100	9.29 µM	> 100	> 100 µM	> 100 µM	> 100	7.47 µM	25.2 µM	0.91 µM	83.1 µM	1.36 µM	3.59 µM	11.1 µM	13.1 µM	11 µM
NNC(=O)C(O)C(O)C(=O)NN (stereo not drawn)	> 100 µM	> 100	> 100 µM	> 100	> 100 µM	> 100 µM	> 100	> 100 µM	–	–	–	–	–	–	–	–
CC(C(N)=O)N(C)C(=O)c1cnc2ccccc2c1 (stereo not drawn)	> 100 µM	> 100	> 100 µM	> 100	> 100 µM	> 100 µM	> 100	–	–	–	–	–	–	–	–	–
O=C(Nc1cccc(C(F)(F)F)c1)c1cc2ccccc2cc1O	> 61.6 µM	> 100	> 30.4 µM	9.34	> 19.9 µM	> 31.3 µM	> 100	> 44 µM	3.67 µM	3.3 µM	1.75 µM	1.89 µM	2.7 µM	2.17 µM	0.471 µM	3.7 µM
CN=C(N)N/N=C(\C)c1ccc2c(c1)Cc1ccccc1-2	–	7.14	66.5 µM	4.5	–	–	21.8	–	1.73 µM	4.06 µM	3.46 µM	3.17 µM	–	2.02 µM	–	–
COc1ccc2c(c1)/C(=N/OC(C)=O)c1c-2cnc2ccccc12	73.8 µM	> 100	68.5 µM	> 100	65.5 µM	> 100 µM	> 100	> 100 µM	28.5 µM	26.4 µM	36.6 µM	39.8 µM	27.4 µM	36.9 µM	22.3 µM	38.4 µM

Compound	TGI [1]	TGI [2] [µM]	TGI [3]	TGI [4] [µM]	TGI [5]	TGI [6]	TGI [7] [µM]	TGI [8]	GI50 [2]	GI50 [3]	GI50 [7]	GI50 [8]	GI50 [1]	GI50 [4]	GI50 [5]	GI50 [6]
Cc1cc2nc3c4ccc(Br)cc4n(CCN(C)C)c3nc2cc1C	10.3 µM	10.5	3.01 µM	4.69	4.66 µM	11.8 µM	7.52	6.38 µM	1.5 µM	1.31 µM	1.6 µM	2.06 µM	1.16 µM	0.609 µM	1.99 µM	1.24 µM
CN1CCN(c2ccc3nc(-c4ccc(OCCCCN5CCN(CCCCN6C(=O)c7cccc8cccc(c78)C6=O)CC5)cc4)[nH]c3c2)CC1	> 100 µM	> 100	–	> 100	> 100 µM	> 100 µM	> 100	> 100 µM	47.8 µM	–	> 100 µM	3.39 µM	> 100 µM	> 100 µM	52.9 µM	48.6 µM
C=CC(C)(O)CC/C=C(\CO)C(=O)OC1C(C)OC(O[C@](C)(C=C)CC/C=C(\CO)C(=O)O[C@H]2C[C@@]3(C(=O)OC4OC(CO)C(O)C(O)C4OC4OC(C)C(OC5OC(CO)C(O)C5O)C(OC5OC(CO)C(O)C(O)C5O)C4O)C(CC2(C)C)C2=CCC4[C@@]5(C)CC[C@H](OC6OC(COC7OC(C)C(O)C(O)C7OC7OCC(O)C(O)C7O)C(O)C(O)C6NC(C)=O)C(C)(C)C5CC[C@@]4(C)[C@]2(C)C[C@H]3O)C(O)C1O (stereo partly drawn)	1.49 µM	7.55	4.03 µM	7.84	1.61 µM	6.45 µM	1.12	7.16 µM	0.125 µM	0.754 µM	0.107 µM	0.989 µM	0.286 µM	2.68 µM	0.341 µM	0.372 µM
NS(=O)(=O)c1ccc(NC(=O)c2cccc(NC3=C(Cl)C(=O)N(Cc4ccccc4)C3=O)c2)cc1	52.3 µM	8.17	33.9 µM	–	30.9 µM	41.8 µM	> 100	36.7 µM	2.82 µM	10.6 µM	27.1 µM	7.92 µM	21.2 µM	–	12.1 µM	12.3 µM
O=C(/C=C/c1cccc2ccccc12)Nc1ncc(Cc2ccccc2)s1	> 66.3 µM	> 100	1.66 µM	> 69.3	> 32.8 µM	> 100 µM	> 100	5.34 µM	0.852 µM	0.436 µM	0.971 µM	0.703 µM	1.32 µM	0.713 µM	0.703 µM	1.55 µM
COc1ccc(-c2nc(C(=O)c3ccccc3)n(CC(=O)c3ccc(Cl)cc3)c2-c2ccc(OC)cc2)cc1	> 100 µM	> 100	> 100 µM	> 100	> 100 µM	> 100 µM	> 100	> 100 µM	> 100 µM	> 100 µM	> 100 µM	> 100 µM	> 100 µM	> 100 µM	> 100 µM	> 100 µM
O=C(/C=C/c1ccccc1)CCC1C(=O)NC(=S)NC1=O	> 100 µM	–	> 100 µM	> 100	–	> 100 µM	> 100	> 100 µM	–	–	–	–	–	–	–	–
Cc1cc2nc(-c3c(F)cccc3Cl)n(Cc3c(F)cccc3Cl)c2cc1C	33.1 µM	> 100	28.4 µM	26.3	48.9 µM	46.6 µM	93.7	48.4 µM	2.6 µM	11.8 µM	25.5 µM	15.8 µM	11.7 µM	12.5 µM	20.3 µM	18.9 µM
O=C(/C=C/c1ccco1)c1ccc(Nc2nc(Nc3ccc(F)cc3)nc(Nc3ccc(F)cc3)n2)cc1	> 100 µM	> 100	> 100 µM	52.1	74.6 µM	46.1 µM	70.8	65 µM	19 µM	41.4 µM	20.5 µM	22.8 µM	19.8 µM	15.1 µM	21.4 µM	17.4 µM
COc1cccc2c1cc1c3c(cc4c(c32)OCO4)C(=O)N1	> 100 µM	> 100	5.5 µM	7.46	8.96 µM	6.01 µM	> 100	6.82 µM	5.15 µM	2.04 µM	6.37 µM	2.33 µM	5.27 µM	2.71 µM	2.62 µM	2.28 µM
COc1cc(-c2cc(=O)c3c(O)c(OC)c(OC)c(OC)c3o2)cc(OC)c1OC	> 100 µM	> 100	33.2 µM	> 100	98.6 µM	> 100 µM	> 78.7	> 20.7 µM	–	–	–	–	–	–	–	–
Cn1cc(-c2nc(N[C@@H]3CCCC[C@@H]3N)c(F)c3c2C(=O)NC3)cn1	75.5 µM and 81.1 µM	> 100	10.5 µM and 12.5 µM	> 100	66.5 µM and > 91.1 µM	66.1 µM and > 75.3 µM	> 100	71 µM and 57.2 µM	5.09 µM and 5.26 µM	1.99 µM and 2.47 µM	27.3 µM and 29 µM	5.95 µM and 6.14 µM	6.47 µM and 9.22 µM	> 100 µM	12.8 µM and 13.1 µM	10.8 µM and 12.4 µM
O=C(Cc1ccccc1)NN1C(=O)/C(=C\c2ccccc2O)SC1=Nc1ccccc1	> 100 µM	–	> 100 µM	> 100	–	> 100 µM	> 100	> 100 µM	–	–	–	–	–	–	–	–
CCCCCCCCCCSC(=N)N	18.6 µM	–	17.6 µM	22.3	3.47 µM	19.2 µM	19.2	12.5 µM	–	5.1 µM	5.17 µM	2.93 µM	5.59 µM	4.8 µM	1.56 µM	4.17 µM
O=C(c1ccc2ccccc2c1)c1c(C(F)(F)F)n([O-])c2ccc(F)cc2[n+]1=O	3.41 µM	5.26	0.958 µM	4.57	–	1.21 µM	3.02	4.77 µM	1.6 µM	0.283 µM	1.51 µM	1.98 µM	1.8 µM	2.1 µM	–	0.324 µM
C/C(=N/O)c1ccc(Nc2cc(-n3ccnc3)c3ccccc3n2)cc1	36.4 µM	1.99	–	> 100	> 100 µM	25.5 µM	> 100	> 100 µM	0.126 µM	–	75.3 µM	12.9 µM	7.21 µM	42.9 µM	35.8 µM	6.01 µM
